For ten molecules, GI50 and TGI results are on record in PubChem BioAssay (NCI).

SMILES strings stand for the structures.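 Following 48 hours of exposure in 96-well plates, responses at five concentrations were used to interpolate endpoints linearly. GI50 marks 50% less growth. TGI marks complete inhibition of growth.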

Some test systems named below: LOX IMVI melanoma; NCI-H522 lung; HL-60(TB) leukemia; HCC-2998 colon; K-562 leukemia; SF-295 CNS; SK-MEL-5 melanoma; EKVX NSCLC; CAKI-1 renal; SK-OV-3 ovarian.
Common to all, as to assay: NCI tumour cell line growth inhibition, 48 h

Take `Cc1ccc(/C=C2/SC(Nc3nc(-c4nc(NC5=NC(=O)/C(=C\c6ccc(C)cc6)S5)sc4C)c(C)s3)=NC2=O)cc1`: the GI50 with LOX IMVI melanoma was 0.287 µM; in the experiment on NCI-H522 lung, 0.857 µM; in the experiment with HL-60(TB) leukemia it was 0.368 µM; with HCC-2998 colon, 1.71 µM; in the experiment with K-562 leukemia, 0.418 µM; with SK-MEL-5 melanoma it was 0.077 µM. In addition, the GI50 is 0.0339 µM in the experiment with EKVX NSCLC and 0.484 µM in the experiment with CAKI-1 renal. Moreover, the TGI in the experiment with LOX IMVI melanoma is 12.2 µM; with NCI-H522 lung, 25.9 µM; in the experiment on HL-60(TB) leukemia, greater than 50 µM; in the experiment with HCC-2998 colon, 9.92 µM; in the experiment with K-562 leukemia, greater than 50 µM; with SF-295 CNS, 0.874 µM. Besides, the TGI is 0.15 µM in the experiment with EKVX NSCLC and 9.41 µM in the experiment on CAKI-1 renal.
In the case of `O=c1c2cccc3cccc(c4oc5c6cccc7cccc(c(=O)c5c14)c76)c32`, the TGI in the experiment with LOX IMVI melanoma is 17.2 µM; in the experiment with NCI-H522 lung it was 10.1 µM; in the experiment with HL-60(TB) leukemia, 20.7 µM; in the experiment with SK-OV-3 ovarian, greater than 31.6 µM; in the experiment with HCC-2998 colon, greater than 31.6 µM; with SF-295 CNS it was greater than 31.6 µM. Moreover, the values for the TGI in the experiment with SK-MEL-5 melanoma, with EKVX NSCLC and in the experiment on CAKI-1 renal were 22.2 µM, 23.3 µM and 45.9 µM, respectively.
For `CN1CCN(c2nc(NCCCCNc3ccnc4cc(Cl)ccc34)c3ccccc3n2)CC1`, the GI50 with LOX IMVI melanoma is 1.89 µM; in the experiment with NCI-H522 lung, 2.82 µM; in the experiment with HL-60(TB) leukemia it was 1.87 µM; with SK-OV-3 ovarian, 18 µM; in the experiment with HCC-2998 colon, 2.59 µM; in the experiment on K-562 leukemia it was 2.53 µM. Also, the GI50 in the experiment with SF-295 CNS is 1.84 µM; with SK-MEL-5 melanoma, 1.78 µM; in the experiment on EKVX NSCLC, 16.4 µM. Also, the TGI with LOX IMVI melanoma is 4.19 µM; in the experiment with NCI-H522 lung, 9.32 µM; in the experiment on HL-60(TB) leukemia, 4.23 µM; with SK-OV-3 ovarian, 41.2 µM; in the experiment with HCC-2998 colon it was 7.12 µM; in the experiment with K-562 leukemia it was 11.8 µM. The TGI with SF-295 CNS was determined as 3.73 µM; in the experiment with SK-MEL-5 melanoma it was 3.19 µM; in the experiment on EKVX NSCLC, 40.7 µM.
For `COc1ccc(C(=O)/C=C/c2c(C(F)(F)F)nc3sccn23)cc1OC`, the GI50 in the experiment with NCI-H522 lung was 2.91 µM; with HL-60(TB) leukemia, 1 µM; in the experiment with SK-OV-3 ovarian it was 3.41 µM; in the experiment on HCC-2998 colon it was 5.07 µM; with K-562 leukemia, 2.25 µM; with SF-295 CNS it was 3.14 µM. Further, the GI50 in the experiment on SK-MEL-5 melanoma was 4.2 µM; with EKVX NSCLC, 4.43 µM; in the experiment on CAKI-1 renal, 2.46 µM. For the same molecule, the TGI with NCI-H522 lung is 80.7 µM; with HL-60(TB) leukemia it was 3.86 µM; in the experiment with SK-OV-3 ovarian, greater than 100 µM; in the experiment on HCC-2998 colon, 97.5 µM; with K-562 leukemia, greater than 100 µM; with SF-295 CNS it was 22.6 µM. Further, the TGI in the experiment on SK-MEL-5 melanoma, with EKVX NSCLC and with CAKI-1 renal was greater than 100 µM in each case.
In the case of `COc1ccc(-c2cnnn2-c2cc(OC)c3c(c2)OCO3)cc1`, the GI50 with LOX IMVI melanoma was 0.491 µM; with NCI-H522 lung, 0.0354 µM; in the experiment on HL-60(TB) leukemia, 0.0761 µM; in the experiment with SK-OV-3 ovarian, 0.348 µM; in the experiment with HCC-2998 colon, 0.307 µM; in the experiment with K-562 leukemia, 0.0417 µM. The GI50 is 0.0585 µM with SF-295 CNS, 0.185 µM with SK-MEL-5 melanoma and 0.118 µM in the experiment with CAKI-1 renal. Besides, the TGI in the experiment with LOX IMVI melanoma is greater than 100 µM; in the experiment on NCI-H522 lung, 0.525 µM; with HL-60(TB) leukemia, 2.72 µM; in the experiment on SK-OV-3 ovarian, greater than 100 µM; with K-562 leukemia, greater than 100 µM; in the experiment on SF-295 CNS it was greater than 100 µM. Further, the TGI with SK-MEL-5 melanoma was 7.33 µM; in the experiment with CAKI-1 renal it was greater than 100 µM.
`O=C(/C=C/c1ccc(Cl)c(Cl)c1)c1ccc(F)cc1`: the TGI in the experiment on NCI-H522 lung amounted to 18.5 µM; in the experiment with HL-60(TB) leukemia, 33.6 µM; with SK-OV-3 ovarian, 83.5 µM; with HCC-2998 colon it was 32.8 µM; in the experiment on K-562 leukemia, 18.7 µM; in the experiment on SF-295 CNS it was 41.6 µM. For the same molecule, the TGI was 41 µM with SK-MEL-5 melanoma, 55.3 µM in the experiment with EKVX NSCLC and 60.8 µM in the experiment with CAKI-1 renal.
Take `C=C1C(=O)OC2C1CC[C@H](C)C13OC(=O)CC1[C@@]23C` (stereo partly specified): the TGI with NCI-H522 lung, with HL-60(TB) leukemia, with SK-OV-3 ovarian, in the experiment with HCC-2998 colon, in the experiment with K-562 leukemia and in the experiment with SF-295 CNS was greater than 100 µM throughout. The TGI in the experiment on SK-MEL-5 melanoma, with EKVX NSCLC and with CAKI-1 renal was greater than 100 µM each time.
For the molecule `CC1=CCC(OC(=O)C(C)(C)CCC(O)(C(=O)OC2(C(C)C)CCC3(C)OC3C2)C(C)C)(C(C)C)CC1` (stereo unspecified), the GI50 is 0.0764 µM in the experiment on LOX IMVI melanoma; 0.13 µM in the experiment with NCI-H522 lung; 0.229 µM in the experiment with HL-60(TB) leukemia; 0.692 µM in the experiment on SK-OV-3 ovarian; 2.13 µM in the experiment with HCC-2998 colon; 0.69 µM in the experiment with SF-295 CNS. Moreover, the GI50 in the experiment with SK-MEL-5 melanoma is 0.197 µM; with EKVX NSCLC, 0.654 µM; in the experiment on CAKI-1 renal, 0.255 µM. Also, the TGI came to 0.15 µM with LOX IMVI melanoma; 0.439 µM in the experiment with NCI-H522 lung; 7.93 µM with HL-60(TB) leukemia; 5.81 µM in the experiment with SK-OV-3 ovarian; 7.33 µM in the experiment with HCC-2998 colon; 1.39 µM in the experiment on SF-295 CNS. Further, the TGI in the experiment on SK-MEL-5 melanoma worked out at 0.725 µM; with EKVX NSCLC, 1.41 µM; in the experiment on CAKI-1 renal it was 1.05 µM.
For the molecule `CC1=C(C(=O)Nc2cccc(Cl)c2)C(c2ccc([N+](=O)[O-])cc2)C(C(=O)Nc2cccc(Cl)c2)=C(C)N1`, the TGI in the experiment on LOX IMVI melanoma was 28.8 µM; in the experiment with NCI-H522 lung, 89.9 µM; in the experiment on HL-60(TB) leukemia, 47.4 µM; in the experiment on SK-OV-3 ovarian it was 48.9 µM; in the experiment on HCC-2998 colon, 48.2 µM; in the experiment on K-562 leukemia, greater than 100 µM. Besides, the TGI is 58.4 µM with SF-295 CNS, 33.8 µM in the experiment with SK-MEL-5 melanoma and greater than 100 µM with EKVX NSCLC.
For the molecule `Cn1c(=O)c(Oc2ccc(F)cc2F)cc2cnc(NC(CO)CO)nc21`, the GI50 in the experiment on LOX IMVI melanoma, in the experiment on NCI-H522 lung, in the experiment with HL-60(TB) leukemia, with SK-OV-3 ovarian, in the experiment on HCC-2998 colon and in the experiment on K-562 leukemia was greater than 25 µM in each case. The GI50 in the experiment on SF-295 CNS, in the experiment with SK-MEL-5 melanoma and in the experiment on CAKI-1 renal was greater than 25 µM each time. In addition, the TGI in the experiment on LOX IMVI melanoma, with NCI-H522 lung, with HL-60(TB) leukemia, in the experiment on SK-OV-3 ovarian, in the experiment on HCC-2998 colon and in the experiment on K-562 leukemia was greater than 25 µM each time. For the same molecule, the TGI in the experiment with SF-295 CNS, in the experiment on SK-MEL-5 melanoma and in the experiment on CAKI-1 renal was greater than 25 µM in each case.
